The text below walks through data of publication PMC12689914, “Identification of a novel dual-targeting peptide inhibitor of SARS-CoV-2 RBD and NRP1 through structure-based virtual screening” (Frontiers in Pharmacology, 2025).

Non-standard residues stand in square brackets, D forms with d. Residues, ends and D or L forms follow the SMILES beside them.

The test system of the experiment is SARS-CoV-2 Omicron XBB.1.5 pseudovirus. The note with it: Omicron XBB.1.5 pseudovirus, 48 h.

`CC(C)C[C@H](NC(=O)[C@H](CCC(=O)O)NC(=O)[C@H](C)NC(=O)[C@@H](N)CCC(=O)O)C(=O)N[C@H](CC(=O)O)C(=O)N[C@H](C(=O)N[C@@H](CO)C(=O)N[C@@H](CC(=O)O)C(=O)N[C@@H](C)C(=O)N[C@@H](Cc1ccccc1)C(=O)N[C@@H](Cc1ccc(O)cc1)C(=O)N[C@@H](CCCNC(=N)N)C(=O)N[C@@H](Cc1ccccc1)C(=O)N[C@@H](Cc1ccccc1)C(=O)N[C@@H](CCCNC(=N)N)C(=O)N[C@@H](CCCNC(=N)N)C(=O)N[C@@H](C)C(=O)N[C@@H](CCCNC(=N)N)C(=O)O)C(C)C` [Peptide-1] (H-EAEL[dD]VSDAFYRFFRRAR-OH; N-terminus and C-terminus assumed): the EC50 came to 620 ± 30 nM.

The term EC50 denotes the concentration needed to bring the measured effect to its halfway point. Read a high EC50 as weaker potency.
